Like-named read-outs stand apart in the source and are kept apart here.
Tests used:
[1] = Tissue distribution after single oral SZ-A (40 mg/kg) in SD rats, plasma and 12 tissues; format: in vivo
Protocol: Twenty SD rats were randomly classified into four groups corresponding to four-time points (5 and 30 min, 4 and 12 h) (n = 20; 5 animals per time point) that received SZ-A solution (40 mg/kg) via oral administration. After the completion of dose administration, plasma and tissue samples (derived from the heart, liver, spleen, lung, kidney, aortic blood vessels, brown adipose tissue, subcutaneous adipose tissue, abdominal adipose tissue, muscle (thigh skeletal muscle), pancreas, and brain) were collected at predetermined time points. Twenty-eight ICR mice were randomly classified into four groups (n = 7 per group) corresponding to four-time points (5 and 30 min, 4 and 12 h) that received SZ-A solution (20 mg/kg) via oral administration. After the completion of dose administration, tissue samples (derived from the heart, liver, spleen, lung, kidney, aortic blood vessels, brown adipose tissue, abdominal adipose tissue, muscle (thigh skeletal muscle), pancreas, and brain) were collected at predetermined time points.
Collected tissue samples were washed with normal saline. The surface moisture was removed by blotting gently with filter paper, and the weight was recorded. After adding an appropriate amount of normal saline, these tissue samples were ground into homogenates using a cryogenic grinder (JX-CL, Shanghai Jingxin, Shanghai, China). The obtained homogenates were stored at −80°C until LC-MS/MS analysis.
(§1) Primary pharmacokinetic parameters, including Cmax, Tmax, area under the plasma concentration-time curve (AUC), t1/2, clearance rate, and the apparent volume of distribution, were calculated using DAS 3.2.8 (Bio Guider Co., Shanghai, China).

[2] = molecular target: T1, rat CYP2C11 (Rattus norvegicus, UniProt P08683); experiment: Inhibition of CYP450s in rat liver microsomes, probe mephenytoin; conditions: RLMs; SZ-A 8.899 μg/mL, DNJ 20 μM, FA 5 μM, DAB 8 μM
T1 sequence (P08683 1-500): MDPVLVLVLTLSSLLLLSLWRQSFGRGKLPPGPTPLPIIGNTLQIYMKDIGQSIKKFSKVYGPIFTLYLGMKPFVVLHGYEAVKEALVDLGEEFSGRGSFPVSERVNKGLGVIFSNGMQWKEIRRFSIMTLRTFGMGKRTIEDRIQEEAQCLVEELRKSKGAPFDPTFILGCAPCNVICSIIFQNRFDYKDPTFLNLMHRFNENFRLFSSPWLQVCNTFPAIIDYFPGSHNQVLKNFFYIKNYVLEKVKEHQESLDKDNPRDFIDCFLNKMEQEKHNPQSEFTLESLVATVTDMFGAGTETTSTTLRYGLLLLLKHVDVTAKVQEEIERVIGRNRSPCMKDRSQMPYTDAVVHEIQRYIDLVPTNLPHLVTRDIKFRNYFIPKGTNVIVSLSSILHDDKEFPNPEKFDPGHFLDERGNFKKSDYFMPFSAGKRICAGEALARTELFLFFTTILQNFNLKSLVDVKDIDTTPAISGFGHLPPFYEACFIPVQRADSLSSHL

[3] = Pharmacokinetic study: plasma levels after oral SZ-A in SD rats (LC-MS/MS, DAS 3.2.8); format: in vivo; conditions: plasma, plasma; for Tmax / AUC(0-inf) / AUC(0-t) / Cmax / half-life / MRT last / MRT inf: both sexes, rat; for Tmax: SD, po; for AUC(0-inf) / AUC(0-t) / Cmax / half-life / CLz / VRT(0-t) / VRT(0-∞) / Vz: n=8; for MRT last: n=8, read-out: MRT(0-t); for MRT inf: n=8, read-out: MRT(0-∞)
Protocol: Twenty-four SD rats were fasted for 12 h (free access to water) and randomly classified into three groups (n = 8; half male and female) that received different doses of SZ-A solution (25, 50, and 200 mg/kg) via oral administration. After completion of dose administration, blood samples (0.3 mL) were collected through an indwelling catheter from the jugular vein at predetermined time points (5, 15, 30, and 45 min, 1, 2, 4, 8, and 24 h). The blood was centrifuged at 5,000 rpm for 10 min to separate the plasma. All plasma samples were stored frozen at −80°C until liquid chromatography coupled to tandem mass spectrometry (LC-MS/MS) analysis (AB SCIEX Triple Quad™ 4,500 mass spectrometer, Applied Biosystems Inc., United States).
as §1

[4] = Sprague-Dawley, rat, Kidney, n=5
[5] = Sprague-Dawley, rat, Liver, n=5
[6] = Sprague-Dawley, rat, Pancreas, n=5
[7] = Sprague-Dawley, rat, Plasma, n=5
[8] = Sprague-Dawley, rat, muscle (thigh skeletal muscle), Muscle, n=5
[9] = rat, Abdominal adipose tissue, n=5
[10] = rat, Subcutaneous adipose tissue, n=5

For `OC[C@H]1NC[C@@H](O)[C@@H]1O` [DAB, 1,4-dideoxy-1,4-imino-D-arabinitol], the “time of distribution peak in the aortic vessel” value [1] was ≤ 5 min, the “tissues with the highest concentrations” value [1] was “kidney, followed by the liver, aortic vessels, and brown adipose tissue” and the “AUC(0-t)” value ([1]; Aortic blood vessels, n=5) was 0.962 ± 0.354 µg·h/mL. It also gave a CLz ([1]; Plasma, n=5) of 1.95 ± 0.26 L/h/kg, a Vz ([1]; Plasma, n=5) of 1.61 ± 0.24 L/kg and a half-life ([1]; Sprague-Dawley, rat, Brown adipose tissue, n=5) of 40.8 ± 0.6 min. It also gave an AUC(0-t) ([1]; Sprague-Dawley, rat, Brown adipose tissue, n=5, read-out: AUC(0-t)) of 0.716 ± 0.259 µg·h/mL, a Tmax ([1]; Sprague-Dawley, rat, Brown adipose tissue, n=5, read-out: Tmax) of 30 min and a Cmax [1, 4] of 13.3 ± 2.89 µg/mL. For the same molecule, the half-life [1, 4] was 165 ± 30.6 min, the AUC(0-t) ([1]; Sprague-Dawley, rat, Kidney, n=5, read-out: AUC(0-t)) was 37.8 ± 7.17 µg·h/mL and the Tmax ([1]; Sprague-Dawley, rat, Kidney, n=5, read-out: Tmax) was 30 min. It also gave a Cmax [1, 5] of 2.07 ± 0.396 µg/mL, a half-life [1, 5] of 229 ± 44.4 min and an AUC(0-t) ([1]; Sprague-Dawley, rat, Liver, n=5, read-out: AUC(0-t)) of 8.12 ± 2.15 µg·h/mL. The Tmax ([1]; Sprague-Dawley, rat, Liver, n=5, read-out: Tmax) was 30 min, the Cmax ([1]; Sprague-Dawley, rat, Lung, n=5) was 0.2 ± 0.0223 µg/mL and the half-life ([1]; Sprague-Dawley, rat, Lung, n=5) was 31.8 ± 16.2 min. The Tmax ([1]; Sprague-Dawley, rat, Lung, n=5, read-out: Tmax) was 13.2 ± 14.4 min, the Cmax [1, 6] was 0.122 ± 0.0169 µg/mL and the half-life [1, 6] was 40.2 ± 2.4 min. It also gave an AUC(0-t) ([1]; Sprague-Dawley, rat, Pancreas, n=5, read-out: AUC(0-t)) of 0.854 ± 0.09 µg·h/mL, a Tmax ([1]; Sprague-Dawley, rat, Pancreas, n=5, read-out: Tmax) of 114 ± 115 min and a Cmax [1, 7] of 0.973 ± 0.215 µg/mL. It also gave a half-life [1, 7] of 34.2 ± 1.2 min, an AUC(0-t) ([1]; Sprague-Dawley, rat, Plasma, n=5, read-out: AUC(0-t)) of 2.36 ± 0.349 µg·h/mL and a Tmax ([1]; Sprague-Dawley, rat, Plasma, n=5, read-out: Tmax) of 30 min. It also gave a Cmax [1, 8] of 0.188 ± 0.0384 µg/mL, a half-life [1, 8] of 929 ± 700 min and an AUC(0-t) ([1]; Sprague-Dawley, rat, muscle (thigh skeletal muscle), Muscle, n=5, read-out: AUC(0-t)) of 1.55 ± 0.212 µg·h/mL. It also gave a Tmax ([1]; Sprague-Dawley, rat, muscle (thigh skeletal muscle), Muscle, n=5, read-out: Tmax) of 67.2 ± 97.2 min, a Cmax [1, 9] of 0.212 ± 0.0582 µg/mL and a half-life [1, 9] of 43.8 ± 3.6 min. It also gave an AUC(0-t) ([1]; rat, Abdominal adipose tissue, n=5, read-out: AUC(0-t)) of 0.46 ± 0.146 µg·h/mL, a Tmax ([1]; rat, Abdominal adipose tissue, n=5, read-out: Tmax) of 25.2 ± 11.4 min and a Cmax ([1]; rat, Aortic blood vessels, n=5) of 0.756 ± 0.536 µg/mL. For the same molecule, the half-life ([1]; rat, Aortic blood vessels, n=5) was 27.6 ± 14.4 min, the Tmax ([1]; rat, Aortic blood vessels, n=5, read-out: Tmax) was 4.8 min and the Cmax ([1]; rat, Brown adipose tissue, n=5) was 0.269 ± 0.0828 µg/mL. For the same molecule, the Cmax ([1]; rat, Heart, n=5) was 0.114 ± 0.0242 µg/mL, the half-life ([1]; rat, Heart, n=5) was 42.6 ± 0.6 min and the AUC(0-t) ([1]; rat, Heart, n=5, read-out: AUC(0-t)) was 0.469 ± 0.213 µg·h/mL. The Tmax ([1]; rat, Heart, n=5, read-out: Tmax) was 72 ± 94.2 min, the AUC(0-t) ([1]; rat, Lung, n=5, read-out: AUC(0-t)) was 0.333 ± 0.108 µg·h/mL and the Cmax ([1]; rat, Spleen, n=5) was 0.144 ± 0.0399 µg/mL. The half-life ([1]; rat, Spleen, n=5) was 45 ± 4.2 min, the AUC(0-t) ([1]; rat, Spleen, n=5, read-out: AUC(0-t)) was 0.294 ± 0.087 µg·h/mL and the Tmax ([1]; rat, Spleen, n=5, read-out: Tmax) was 30 min. The Cmax [1, 10] was 0.112 ± 0.0415 µg/mL, the half-life [1, 10] was 44.4 ± 1.8 min and the AUC(0-t) ([1]; rat, Subcutaneous adipose tissue, n=5, read-out: AUC(0-t)) was 0.232 ± 0.075 µg·h/mL. For the same molecule, the Tmax ([1]; rat, Subcutaneous adipose tissue, n=5, read-out: Tmax) was 30 min, the Tmax ([1]; rat, other tissues (not named), tissues not named separately for that alkaloid, read-out: time of peak concentration in other tissues (converted)) was 30 min and the accumulation in tissues ([1]; up to 12 h) was “no long-term accumulation”. For the same molecule, the “effect on rat CYP2C11” value [2] was “mild activation effect”, the Tmax ([3]; 25 mg/kg, oral SZ-A 25 mg/kg, n=8, read-out: Tmax) was 18.6 ± 7.2 min and the Tmax ([3]; 50 mg/kg, oral SZ-A 50 mg/kg, n=8, read-out: Tmax) was 26.4 ± 21 min. The Tmax ([3]; 200 mg/kg, oral SZ-A 200 mg/kg, n=8, read-out: Tmax) was 45 ± 18 min, the Tmax ([3]; 200 mg/kg, oral SZ-A 25, 50 and 200 mg/kg, read-out: time to maximum plasma concentration (Tmax), all dose groups) was ≤ 52.8 min and the AUC(0-inf) ([3]; oral SZ-A 25 mg/kg) was 1.36 ± 0.299 µg·h/mL. For the same molecule, the AUC(0-t) ([3]; oral SZ-A 25 mg/kg) was 1.36 ± 0.299 µg·h/mL, the Cmax ([3]; oral SZ-A 25 mg/kg) was 1.05 ± 0.141 µg/mL and the half-life ([3]; oral SZ-A 25 mg/kg) was 69.6 ± 18.6 min. For the same molecule, the MRT last ([3]; oral SZ-A 25 mg/kg) was 75.6 ± 10.2 min, the MRT inf ([3]; oral SZ-A 25 mg/kg) was 75.6 ± 10.2 min and the AUC(0-inf) ([3]; oral SZ-A 50 mg/kg) was 2.66 ± 0.367 µg·h/mL. For the same molecule, the AUC(0-t) ([3]; oral SZ-A 50 mg/kg) was 2.66 ± 0.367 µg·h/mL, the Cmax ([3]; oral SZ-A 50 mg/kg) was 1.77 ± 0.632 µg/mL and the half-life ([3]; oral SZ-A 50 mg/kg) was 72 ± 1.8 min. For the same molecule, the MRT last ([3]; oral SZ-A 50 mg/kg) was 87 ± 33.6 min, the MRT inf ([3]; oral SZ-A 50 mg/kg) was 87 ± 33.6 min and the AUC(0-inf) ([3]; oral SZ-A 200 mg/kg) was 7.63 ± 2.04 µg·h/mL. For the same molecule, the AUC(0-t) ([3]; oral SZ-A 200 mg/kg) was 7.63 ± 2.04 µg·h/mL, the Cmax ([3]; oral SZ-A 200 mg/kg) was 3.64 ± 1.37 µg/mL and the half-life ([3]; oral SZ-A 200 mg/kg) was 64.8 ± 2.4 min. For the same molecule, the MRT last ([3]; oral SZ-A 200 mg/kg) was 96 ± 15.6 min, the MRT inf ([3]; oral SZ-A 200 mg/kg) was 96 ± 15.6 min and the CLz ([3]; oral SZ-A 25 mg/kg) was 2.72 ± 0.66 L/h/kg. For the same molecule, the “VRT(0-t)” value ([3]; oral SZ-A 25 mg/kg) was 1.25±0.51 h^2, the “VRT(0-∞)” value ([3]; oral SZ-A 25 mg/kg) was 1.25±0.51 h^2 and the Vz ([3]; oral SZ-A 25 mg/kg) was 4.47 ± 1.53 L/kg. For the same molecule, the CLz ([3]; oral SZ-A 50 mg/kg) was 2.71 ± 0.37 L/h/kg, the “VRT(0-t)” value ([3]; oral SZ-A 50 mg/kg) was 1.83±2.07 h^2 and the “VRT(0-∞)” value ([3]; oral SZ-A 50 mg/kg) was 1.83±2.07 h^2. For the same molecule, the Vz ([3]; oral SZ-A 50 mg/kg) was 4.70 ± 0.65 L/kg, the CLz ([3]; oral SZ-A 200 mg/kg) was 3.94 ± 1.00 L/h/kg and the “VRT(0-t)” value ([3]; oral SZ-A 200 mg/kg) was 1.92±0.81 h^2. The “VRT(0-∞)” value ([3]; oral SZ-A 200 mg/kg) was 1.92±0.81 h^2 and the Vz ([3]; oral SZ-A 200 mg/kg) was 6.20 ± 1.82 L/kg.
